Laboratory results: ChEMBL document CHEMBL1149921 (Bioorg Med Chem Lett, 1996)
Values belong to the compound of their own block, whether it stands above or below them.

Assays:
[1] = target: T1, Neprilysin (Rattus norvegicus) (UniProt P07861); test: Compound was tested for inhibitory activity against neutral endopeptidase (NEP) at concentration 300 nM
T1 sequence (whole entry): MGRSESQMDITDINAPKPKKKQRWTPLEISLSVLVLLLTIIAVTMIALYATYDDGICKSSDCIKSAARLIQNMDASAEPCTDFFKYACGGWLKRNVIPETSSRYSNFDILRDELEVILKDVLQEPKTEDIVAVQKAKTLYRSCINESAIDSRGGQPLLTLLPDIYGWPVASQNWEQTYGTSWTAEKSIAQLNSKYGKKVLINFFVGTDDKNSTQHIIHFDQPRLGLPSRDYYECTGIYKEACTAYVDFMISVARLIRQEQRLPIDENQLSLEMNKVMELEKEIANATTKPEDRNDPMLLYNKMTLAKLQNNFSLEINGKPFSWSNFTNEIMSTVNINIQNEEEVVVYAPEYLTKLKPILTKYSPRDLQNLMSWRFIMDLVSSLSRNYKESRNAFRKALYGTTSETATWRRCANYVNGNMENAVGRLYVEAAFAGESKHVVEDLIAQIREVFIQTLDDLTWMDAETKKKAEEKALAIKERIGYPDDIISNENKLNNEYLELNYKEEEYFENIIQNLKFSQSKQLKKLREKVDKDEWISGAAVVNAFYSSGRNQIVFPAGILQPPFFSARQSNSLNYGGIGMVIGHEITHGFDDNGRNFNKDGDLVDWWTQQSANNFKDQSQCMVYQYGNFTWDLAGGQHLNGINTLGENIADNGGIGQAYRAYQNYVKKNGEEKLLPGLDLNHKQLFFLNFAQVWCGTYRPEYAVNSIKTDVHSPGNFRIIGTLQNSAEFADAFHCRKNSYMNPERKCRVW

Neprilysin [2] = target: T2, Neprilysin (Rattus norvegicus, UniProt P07861); test: compound was tested for inhibitory activity against neutral endopeptidase (NEP)
T2 sequence (P07861 whole entry): T1 sequence (whole entry)

[3] = target: Neprilysin (Rattus norvegicus) (UniProt P07861); test: Compound was tested for inhibitory activity against neutral endopeptidase (NEP) at concentration 10 nM
[4] = target: T1, Neprilysin (Rattus norvegicus); test: Compound was tested for inhibitory activity against neutral endopeptidase (NEP) at concentration 1000 nM
Neprilysin [5] = target: T2, Neprilysin; test: Compound was tested for inhibitory activity against neutral endopeptidase (NEP)
[6] = target: T3, Endothelin-converting enzyme 1 (Homo sapiens) (UniProt P42892); test: Compound was tested for inhibitory activity against Endothelin-converting enzyme isolated from guinea pig lung membrane at concentration 10 nM; type: tissue-based; conditions: Cavia porcellus, target entry is the homologue from another species
T3 sequence (whole entry): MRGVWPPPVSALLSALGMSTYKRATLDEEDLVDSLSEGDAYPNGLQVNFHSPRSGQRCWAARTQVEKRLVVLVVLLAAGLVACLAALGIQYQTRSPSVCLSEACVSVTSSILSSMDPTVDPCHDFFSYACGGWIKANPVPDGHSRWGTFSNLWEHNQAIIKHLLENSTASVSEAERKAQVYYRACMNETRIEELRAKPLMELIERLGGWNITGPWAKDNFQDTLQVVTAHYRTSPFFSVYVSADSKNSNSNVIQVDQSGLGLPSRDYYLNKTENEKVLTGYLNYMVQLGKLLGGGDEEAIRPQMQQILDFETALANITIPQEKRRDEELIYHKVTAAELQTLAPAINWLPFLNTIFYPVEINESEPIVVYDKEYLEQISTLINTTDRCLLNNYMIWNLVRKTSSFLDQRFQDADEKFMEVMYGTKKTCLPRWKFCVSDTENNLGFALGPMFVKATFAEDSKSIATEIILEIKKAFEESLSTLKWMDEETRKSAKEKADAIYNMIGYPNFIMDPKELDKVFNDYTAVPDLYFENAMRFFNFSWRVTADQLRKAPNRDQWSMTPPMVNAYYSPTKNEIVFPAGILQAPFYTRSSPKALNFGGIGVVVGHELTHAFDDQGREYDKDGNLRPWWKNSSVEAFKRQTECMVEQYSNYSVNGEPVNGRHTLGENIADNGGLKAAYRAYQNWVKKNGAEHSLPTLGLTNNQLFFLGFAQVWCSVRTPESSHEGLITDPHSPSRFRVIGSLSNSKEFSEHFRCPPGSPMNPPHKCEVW

inhibition [1]: 9%
Structure (SMILES): CC(C)CC(CP(=O)(O)C(Cc1ccccc1)NC(=O)[C@H](CC(C)C)NC(=O)OCc1ccccc1)C(=O)N[C@@H](Cc1c[nH]c2ccccc12)C(=O)O (stereo not given in full)

inhibition [1]: 19%
Structure (SMILES): CC(C)C(CP(=O)(O)C(Cc1ccccc1)NC(=O)[C@H](CCCCNC(=O)OCc1ccccc1)NS(C)(=O)=O)C(=O)N[C@@H](Cc1c[nH]c2ccccc12)C(=O)O (stereo not given in full)

IC50 (Neprilysin [2]): 800 nM
Structure (SMILES): CC(C)C(CP(=O)(O)C(Cc1ccccc1)NC(=O)[C@H](CCCCN)NS(C)(=O)=O)C(=O)N[C@@H](Cc1c[nH]c2ccccc12)C(=O)O (stereo not given in full)

inhibition [3]: 31%
Structure (SMILES): CC(C)CC(CP(=O)(O)C(N)Cc1ccccc1)C(=O)N[C@@H](Cc1c[nH]c2ccccc12)C(=O)O (stereo not given in full)

IC50 (Neprilysin [2]): 320 nM
Structure (SMILES): CC(C)CC(CP(=O)(O)C(CC(C)C)NC(=O)[C@H](CCCCNC(=O)OCc1ccccc1)NS(C)(=O)=O)C(=O)N[C@@H](Cc1c[nH]c2ccccc12)C(=O)O (stereo not given in full)

inhibition [1]: 18%
Structure (SMILES): CC(C)CC(CP(=O)(O)C(Cc1ccc2ccccc2c1)NC(=O)[C@H](CCCCN)NS(C)(=O)=O)C(=O)N[C@@H](Cc1c[nH]c2ccccc12)C(=O)O (stereo not given in full)

inhibition [4]: 0%
Structure (SMILES): CC(C)C(CP(=O)(O)C(Cc1ccccc1)NC(=O)[C@H](CCCCN)NC(=O)OCc1ccccc1)C(=O)N[C@@H](Cc1c[nH]c2ccccc12)C(=O)O (stereo not given in full)

inhibition [1]: 13%
Structure (SMILES): CC(C)CC(CP(=O)(O)C(Cc1ccc2ccccc2c1)NC(=O)[C@H](CCCCNC(=O)OCc1ccccc1)NS(C)(=O)=O)C(=O)N[C@@H](Cc1c[nH]c2ccccc12)C(=O)O (stereo not given in full)

IC50 (Neprilysin [5]): 370 nM | inhibition [6]: 57%
Structure (SMILES): CC(C)CC(NC(=O)[C@H](CCCCNC(=O)OCc1ccccc1)NS(C)(=O)=O)P(=O)(O)CC(C)C(=O)N[C@@H](Cc1c[nH]c2ccccc12)C(=O)O (stereo not given in full)
